Assays:
eRF1 = molecular target: T1, eRF1 (Saccharomyces cerevisiae, UniProt P12385); experiment: [3H]-AzAt photoaffinity labeling of isolated eRF1; assay type: binding
T1 construct: made in house; host or cells: E. coli BL21(DE3) CodonPlus
Method: (§1) Photoaffinity labeling with [^3H]-AzAt. Samples in Buffer 4, typically 20 μL, were incubated in the dark (20 min for Stop-POST5 and 80S-IRES complexes, 2 min for release factors) with various concentrations of [^3H]-AzAt at 37° C., transferred to a UV-transparent cuvette which was covered with parafilm to prevent evaporation, and irradiated in a Rayonet photochemical reactor equipped with 300 nm UV lamps for 5 min at room temperature. This was followed by quenching with 2 mM DTT at 37° C. for 5 min under ambient light. The irradiation time gave complete photolysis of the phenyl azide moiety in AzAt. Photolysis was also complete at 5 min in the presence of 1 mM ataluren, ruling out internal filtering effects.
(§2) Photoaffinity labeling of release factors. Solutions containing eRF1 (10 μM), eRF3 (20 μM) and 1 mM GMPPMP were pre-incubated at 37° C. for 2 min to form the ternary complex prior to photolabeling with [^3H]-AzAt. After quenching, reaction mixtures were loaded onto a 4-15% mini protean SDS-PAGE gel for protein separation and isolation. Gel slices containing eRF1 or eRF3, as shown by Coomassie Blue R250 staining, were crushed and the radioactivity was extracted in extraction buffer (50 mM Tris-HCl, 150 mM NaCl, and 0.1 mM EDTA; pH 7.5) by vigorously shaking at 70° C. for 30 min. The data fitting was performed using the software Prism. Labeling results of eRF1 alone and within the eRF1.eRF3.GDPNP complex were fit with a one-site binding model and a two-site binding model, respectively.

[1] = molecular target: T2, eRF1.eRF3.GDPNP ternary complex (Saccharomyces cerevisiae, UniProt P12385); experiment: [3H]-AzAt photoaffinity labeling of eRF1 within ternary complex; assay type: binding
T2 construct: made in house; host or cells: E. coli BL21(DE3) CodonPlus
Method: as §1, §2

[2] = system: Small RNAs within Stop-POST5 complex; experiment: AzAt photoincorporation into small RNAs (urea-PAGE, RNAse H fragments); assay type: binding, shrimp (Artemia salina)
Method: FIG. 11 illustrates 8% Urea-PAGE resolution of small RNAs.
as §1
Stop-POST5 and 80S-IRES complexes. 1 μM solutions of either Stop-POST5 or 80S-S.IRES, determined by A260, were photolabeled by [^3H]-AzAt. The sample was then either directly purified by ultracentrifugation through a sucrose cushion to determine the photoincorporation stoichiometry in the complex, or subjected to phenol/chloroform extraction to determine the photoincorporation stoichiometry in the total RNA. To determine the photoincorporation background arising from incomplete removal of noncovalently bound photolyzed AzAt, AzAt was prephotolysed for 5 min before adding to the complex, followed by the 20 min incubation in dark at 37° C. and subsequent sucrose cushion purification or RNA extraction as described above.
(§3) RNaseH Fragment Assay. Total RNA was prepared from the ^3H-AzAt photoaffinity labeled ribosome by phenol-chloroform extraction. RNA: DNA duplexes were formed by incubating total RNA (0.2 μM) with an oligonucleotide pair (1 μM of each, sequences shown Table 1), flanking a specific RNA region, in 22.8 μL of water at 95° C. for 2 min, followed by annealing at 50° C. for 30 s and quenching on ice. Six units (1.2 μL) of RNase H (NEB) and 6 μl of 5×RNase H Reaction Buffer were next added to the RNA: DNA duplex and incubated at 37° C. for 1 hour, followed by phenol-chloroform extraction of RNA. The digested RNA was separated on 12% TBE-Urea PAGE gel, and the target band along with the adjacent upper and bottom gels were sliced by a 2 mm gel cutter. The gel slices were crushed and the ^3H labeled rRNA fragment was extracted in water by vigorously shaking at 70° C. for 30 min, or by overnight extraction in elution buffer (0.3M sodium acetate, 0.25% SDS, 1 mM EDTA). The slurry was removed by centrifugation and the eluted ^3H labeled rRNA in the supernatant was quantified. The stoichiometry of AzAt photoincorporation was calculated based on a gel recovery yield of 20±2%, determined using an authentic sample of [^3H]-Gln-tRNA^Gln.
Small RNAs. AzAt photoincorporation into the 4 small RNAs (CrPV-IRES, 5.8S rRNA, 5S rRNA, and tRNA) contained within POST5 was examined by one-dimensional (1D) urea-PAGE analysis, by RNA-Seq, and by RNAse H fragment assay (FIG. 11).

[3] = system: rRNA fragments I-IV of Stop-POST5; experiment: RNaseH fragment assay, Stop-POST5; assay type: binding, shrimp (Artemia salina)
Method: as §3
Testing the functional pertinence of AzAt photolabeling of 18S A1195, 28S-A3093, 28S-A2672, and 28S-2669. An RNAse H fragment assay was employed to determine whether the potential functionally significant sites identified by LASER-seq correspond to ataluren binding sites relevant for termination activity. In this assay, oligonucleotide hybridization, RNase H digestion and polyacrylamide gel electrophoresis (PAGE) were used to determine the stoichiometry of [^3H]-AzAt photoincorporation into the three rRNA fragments that together include the four nucleotides of interest: Fragment I, 18S-A1195; Fragment II, 26S-A3093; Fragment III, 26S-A2669 and 26S-A2672 (Table 5). The separate addition of four potential competitors of AzAt binding (eRF1 alone, the stably bound eRF1.eRF3.GDPNP complex, ataluren, and the ataluren-like TRID GJ072) was used to test how these affected such photoincorporation. These experiments, the results of which are summarized in Table 5, were performed at two different AzAt concentrations. eRF1 and eRF1.eRF3.GDPNP effects were measured using 300 μM AzAt, paralleling the LASER-Seq PAL experiments.

[4] = PAL, 30 μM AzAt, alone (AzAt) or plus competing ligand named as label (Ataluren 500 μM, GJ072 150 μM)
[5] = PAL, 30 μM AzAt, alone or plus competing ligand named as label
[6] = Stop-POST5, PAL, 30 μM AzAt, alone or plus Ataluren 500 μM / GJ072 150 μM named as label
[7] = PAL, 300 μM AzAt, alone or plus competing ligand named as label
[8] = Stop-POST5, PAL, 300 μM AzAt, alone or plus competing ligand named as label
[9] = Stop-POST5, PRE, 300 μM prephotolysed AzAt

T2 sequence (P05453 166-685): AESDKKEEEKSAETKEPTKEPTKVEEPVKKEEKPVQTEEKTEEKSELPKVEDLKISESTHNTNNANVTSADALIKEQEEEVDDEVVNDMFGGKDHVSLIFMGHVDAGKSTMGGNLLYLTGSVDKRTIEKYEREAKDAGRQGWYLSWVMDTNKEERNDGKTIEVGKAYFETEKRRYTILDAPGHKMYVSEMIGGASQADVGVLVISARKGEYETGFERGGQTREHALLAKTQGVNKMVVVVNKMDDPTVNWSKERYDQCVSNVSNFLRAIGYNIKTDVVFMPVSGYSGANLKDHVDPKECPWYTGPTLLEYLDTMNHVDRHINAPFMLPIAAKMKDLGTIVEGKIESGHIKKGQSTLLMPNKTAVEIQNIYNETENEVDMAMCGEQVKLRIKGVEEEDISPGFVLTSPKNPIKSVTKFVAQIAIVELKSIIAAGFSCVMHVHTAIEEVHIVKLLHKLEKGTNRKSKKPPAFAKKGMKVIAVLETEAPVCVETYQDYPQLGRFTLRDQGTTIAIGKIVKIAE
T2 sequence (P12385 whole entry): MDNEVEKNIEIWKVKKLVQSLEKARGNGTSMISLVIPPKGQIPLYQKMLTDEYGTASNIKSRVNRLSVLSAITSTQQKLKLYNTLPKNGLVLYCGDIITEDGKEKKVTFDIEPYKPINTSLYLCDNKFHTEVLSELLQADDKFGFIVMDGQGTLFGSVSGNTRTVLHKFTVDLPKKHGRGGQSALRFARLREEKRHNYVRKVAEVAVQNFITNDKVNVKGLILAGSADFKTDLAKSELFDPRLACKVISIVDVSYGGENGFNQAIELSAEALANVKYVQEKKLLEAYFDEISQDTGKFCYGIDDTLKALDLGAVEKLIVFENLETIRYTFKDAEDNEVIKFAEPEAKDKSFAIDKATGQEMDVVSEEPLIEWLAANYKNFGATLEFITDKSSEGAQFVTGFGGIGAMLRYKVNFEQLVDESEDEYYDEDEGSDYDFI
T1 sequence (P12385 whole entry): as above

Compound: O=C(O)c1cccc(-c2noc(-c3ccccc3F)n2)c1 [Ataluren]
- effect on AzAt photoincorporation into isolated eRF1 (eRF1; FIG. 2E): substantially inhibited
- inhibition of AzAt photoincorporation into eRF1 within the ternary complex ([1]; compared with isolated eRF1, FIG. 2E): less marked
- Photoincorporation yields into CrPV-IRES nts1-155 [2, 4]: 0.40 ± 0.13 mole %
- Photoincorporation yields into 5S rRNA [2, 5]: 0.15 ± 0.01 mole %
- Photoincorporation yields into 5.8S rRNA [2, 5]: 0.19 ± 0.01 mole %
- Photoincorporation yields into CrPV-IRES All [2, 5]: 0.76 ± 0.05 mole %
- Photoincorporation yields into CrPV-IRES nts156-221 [2, 5]: 0.17 ± 0.03 mole %
- Photoincorporation yields into CrPV-IRES nts222-278 [2, 5]: 0.07 ± 0.06 mole %
- Photoincorporation yields into tRNA^Gln [2, 5]: 0.22 ± 0.03 mole %
- effect on AzAt labeling of CrPV-IRES fragments 1-155 and 156-221 ([2]; RNAse H fragment assay): no clearly significant changes
- effect on AzAt labeling of small RNAs ([2]; none clearly significant): generally small reductions
- effect on AzAt photoincorporation into Fragment IV (26S A1437/A1438) [3]: neither ataluren nor GJ072 reduce labeling at all
- effect on AzAt photoincorporation into Fragment I (18S-A1195) ([3]; Stop-POST5): strongly inhibits
- effect on AzAt photoincorporation into Fragment II (A3093) ([3]; Stop-POST5): stimulated
- effect on AzAt photoincorporation into Fragment III (A2669/A2672) ([3]; Stop-POST5): only weakly inhibited
- Photoincorporation yields into 18S A1195/ I: 18S 1151-1206 [3, 6]: 0.06 ± 0.01 mole %
- Photoincorporation yields into 26S-A2669:A2672/ III: 26S 2638-2702 [3, 6]: 0.10 ± 0.04 mole %
- Photoincorporation yields into 26S-A3093/ II: 26S 3069-3113 [3, 6]: 0.06 ± 0.01 mole %
- Photoincorporation yields into RNAse H Fragment IV: 26S 1413-1476 [3, 6]: 0.034 ± 0.006%

Compound: [N-]=[N+]=Nc1ccc(-c2nc(-c3cccc(C(=O)O)c3)no2)cc1 [AzAt]
- Kd (eRF1; hyperbolic saturation curve, read-out: Kd, photoincorporation into isolated eRF1): 110 ± 20 µM
- Kd ([1]; two-site model, read-out: Kd, tight site photoincorporation into eRF1 within ternary complex): 90 ± 20 µM
- Photoincorporation yields into CrPV-IRES nts1-155 [2, 4]: 0.56 ± 0.04 mole %
- Photoincorporation yields into 5S rRNA [2, 5]: 0.19 ± 0.01 mole %
- Photoincorporation yields into 5.8S rRNA [2, 5]: 0.25 ± 0.01 mole %
- Photoincorporation yields into CrPV-IRES All [2, 5]: 0.85 ± 0.14 mole %
- Photoincorporation yields into CrPV-IRES nts156-221 [2, 5]: 0.23 ± 0.08 mole %
- Photoincorporation yields into CrPV-IRES nts222-278 [2, 5]: 0.06 ± 0.04 mole %
- Photoincorporation yields into tRNA^Gln [2, 5]: 0.30 ± 0.04 mole %
- Photoincorporation yields into CrPV-IRES nts1-155 ([2]; PAL, 300 μM AzAt, alone (AzAt) or plus competing ligand named as label (eRF1 2 μM, eRF3 4 μM, GDPNP 1 mM)): 7.6 ± 1.5 mole %
- Photoincorporation yields into 5S rRNA [2, 7]: 1.62 ± 0.11 mole %
- Photoincorporation yields into 5.8S rRNA [2, 7]: 0.89 ± 0.10 mole %
- Photoincorporation yields into CrPV-IRES All [2, 7]: 7.3 ± 0.5 mole %
- Photoincorporation yields into CrPV-IRES nts156-221 [2, 7]: 3.2 ± 0.8 mole %
- Photoincorporation yields into CrPV-IRES nts222-278 [2, 7]: 0.02 ± 0.03 mole %
- Photoincorporation yields into tRNA^Gln [2, 7]: 2.3 ± 0.2 mole %
- Photoincorporation yields into 5S rRNA ([2]; PRE, 300 μM prephotolysed AzAt): 0.02 ± 0.01 mole %
- Photoincorporation yields into 5.8S rRNA ([2]; PRE, 300 μM prephotolysed AzAt): 0.02 ± 0.01 mole %
- Photoincorporation yields into CrPV-IRES All ([2]; PRE, 300 μM prephotolysed AzAt): 0.02 ± 0.01 mole %
- Photoincorporation yields into CrPV-IRES nts1-155 ([2]; PRE, 300 μM prephotolysed AzAt): 0.02 ± 0.01 mole %
- Photoincorporation yields into CrPV-IRES nts156-221 ([2]; PRE, 300 μM prephotolysed AzAt): 0.05 ± 0.04 mole %
- Photoincorporation yields into CrPV-IRES nts222-278 ([2]; PRE, 300 μM prephotolysed AzAt): 0.03 ± 0.01 mole %
- Photoincorporation yields into tRNA^Gln ([2]; PRE, 300 μM prephotolysed AzAt): 0.41 ± 0.09 mole %
- saturating value of photo-incorporation into Fragment II ([3]; FIG. 7B): 0.8%
- saturating value of photo-incorporation into Fragment III ([3]; FIG. 7B): 0.8%
- Photoincorporation yields into 18S A1195/ I: 18S 1151-1206 [3, 6]: 0.26 ± 0.03 mole %
- Photoincorporation yields into 26S-A2669:A2672/ III: 26S 2638-2702 [3, 6]: 0.13 ± 0.04 mole %
- Photoincorporation yields into 26S-A3093/ II: 26S 3069-3113 [3, 6]: 0.03 ± 0.01 mole %
- Photoincorporation yields into RNAse H Fragment IV: 26S 1413-1476 [3, 6]: 0.020 ± 0.003%
- Photoincorporation yields into 26S-A2669:A2672/ III: 26S 2638-2702 [3, 8]: 1.07 ± 0.14 mole %
- Photoincorporation yields into 26S-A3093/ II: 26S 3069-3113 [3, 8]: 0.40 ± 0.01 mole %
- Photoincorporation yields into RNAse H Fragment IV: 26S 1413-1476 ([3]; Stop-POST5, PAL, 300 μM AzAt, alone or plus competing ligand named as label (eRF1 2 μM, eRF3 4 μM, GDPNP 1 mM)): 0.29 ± 0.03%
- Photoincorporation yields into 18S A1195/ I: 18S 1151-1206 ([3]; Stop-POST5, PAL, 300 μM AzAt, alone or plus competing ligand named as label (eRF1 2 μM, eRF3 4 μM, GDPNP)): 1.55 ± 0.20 mole %
- Photoincorporation yields into 18S A1195/ I: 18S 1151-1206 [3, 9]: 0.012 ± 0.003 mole %
- Photoincorporation yields into 26S-A2669:A2672/ III: 26S 2638-2702 [3, 9]: 0.03 ± 0.02 mole %
- Photoincorporation yields into 26S-A3093/ II: 26S 3069-3113 [3, 9]: 0.04 ± 0.01 mole %
- KA, photoincorporation into Fragments II and III (PTC) ([3]; fit to eq (1)): 200 ± 40 µM
- Kd ([3]; simple hyperbolic binding isotherm, FIG. 7A, read-out: apparent KD, photoincorporation into Fragment I (18S-A1195)): 240 ± 10 µM
